Assay [1] addresses T1, Bcl-2-like protein 1 (Homo sapiens, UniProt Q07817). Briefly: Displacement of FITC-labeled BH3 peptide from human Bcl-XL after 1 hr by fluorescence polarization assay. For orientation: Polarisation of emitted light reports the rotation of a fluorescent probe.
In assay [2] the target is T1, Bcl-2-like protein 1. As to the kind of experiment: Inhibition of human Bcl-XL.
For assay [3], the system named is K562. Briefly: cells. The settings on record: Homo sapiens, K562, 48 h.
Description: Cytotoxicity against human K562 cells after 48 hrs by MTT assay
In assay [4] the target is Apoptosis regulator Bcl-2 (Homo sapiens, UniProt P10415). As to the kind of experiment: Displacement of FITC labeled BH3 peptide from His-tagged human BCL2 after 1 hr by fluorescence polarization assay.
Sequence of Apoptosis regulator Bcl-2 (P10415 whole entry): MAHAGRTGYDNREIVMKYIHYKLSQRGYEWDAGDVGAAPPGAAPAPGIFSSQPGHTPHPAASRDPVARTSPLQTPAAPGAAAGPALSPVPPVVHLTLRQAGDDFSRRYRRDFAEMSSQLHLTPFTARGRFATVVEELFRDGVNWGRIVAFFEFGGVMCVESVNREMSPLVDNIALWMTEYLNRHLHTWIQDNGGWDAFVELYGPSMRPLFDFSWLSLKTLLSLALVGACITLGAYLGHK
In the next assay the test system is PC-3. As to the kind of experiment: Cytotoxicity against human PC3 cells after 48 hrs by MTT assay. Type of assay: functional, cell-based. The settings on record: for EC50: PC-3, 48 h.
Assay [5] is described as follows: Cytotoxicity against human Bel7404 cells after 48 hrs by MTT assay. To be noted: BEL-7404, 48 h.
The next assay deals with HepG2. Briefly: cells. The settings on record: Homo sapiens, HepG2, 48 h.
The next assay concerns A2780. As to the kind of experiment: cells. The settings on record: Homo sapiens, A2780, 48 h.
The target in assay [6] is Induced myeloid leukemia cell differentiation protein Mcl-1 homolog (Mus musculus, UniProt P97287). As to the kind of experiment: Displacement of FITC-labeled BH3 peptide from GST-tagged mouse Mcl1 after 1 hr by fluorescence polarization assay.
Sequence of Induced myeloid leukemia cell differentiation protein Mcl-1 homolog (P97287 whole entry): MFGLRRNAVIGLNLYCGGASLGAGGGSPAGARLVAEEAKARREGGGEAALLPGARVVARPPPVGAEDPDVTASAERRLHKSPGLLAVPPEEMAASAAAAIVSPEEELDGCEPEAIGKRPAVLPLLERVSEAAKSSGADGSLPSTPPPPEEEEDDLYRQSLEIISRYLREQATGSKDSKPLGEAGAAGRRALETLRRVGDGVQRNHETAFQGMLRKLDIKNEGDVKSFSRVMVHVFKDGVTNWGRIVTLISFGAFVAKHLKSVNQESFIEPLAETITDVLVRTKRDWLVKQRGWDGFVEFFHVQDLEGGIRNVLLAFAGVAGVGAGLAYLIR
For the next assay, the system named is OVCAR-3. As to the kind of experiment: Cytotoxicity against human OVCAR-3 cells after 48 hrs by MTT assay. To be noted: OVCAR-3, 48 h.
The target of assay [7] is Bcl-2-like protein 1 (Homo sapiens, UniProt Q07817, Y101A). As to the kind of experiment: Binding affinity to human Bcl-XL Y101A mutant by surface plasma resonance based biosensor system.
Sequence of Bcl-2-like protein 1 (Homo sapiens, UniProt Q07817, Y101A) (Q07817 whole entry Y101A): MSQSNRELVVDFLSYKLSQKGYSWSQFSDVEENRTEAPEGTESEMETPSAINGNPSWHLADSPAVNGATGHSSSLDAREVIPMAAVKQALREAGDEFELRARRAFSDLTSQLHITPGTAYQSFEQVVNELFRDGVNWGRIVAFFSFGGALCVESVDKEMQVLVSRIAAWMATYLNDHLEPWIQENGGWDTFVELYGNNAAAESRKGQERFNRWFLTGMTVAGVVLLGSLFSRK
Assay [8] concerns K562. Briefly: Induction of apoptosis in human K562 cells assessed as chromatin condensation. Type of assay: functional, cell-based.
The target in assay [9] is T1, Bcl-2-like protein 1. As to the kind of experiment: Binding affinity to human Bcl-XL by surface plasma resonance based biosensor system.
In assay [10] the target is Bcl-2-like protein 1 (Homo sapiens, UniProt Q07817, Y195A). As to the kind of experiment: Binding affinity to human Bcl-XL Y195A mutant by surface plasma resonance based biosensor system.
Sequence of Bcl-2-like protein 1 (Homo sapiens, UniProt Q07817, Y195A) (Q07817 whole entry Y195A): as the sequence (Q07817 whole entry Y101A) above, with A101Y, Y195A counted along it
In assay [11] the target is Bcl-2-like protein 1 (Homo sapiens, UniProt Q07817, E96A). As to the kind of experiment: Binding affinity to human Bcl-XL E96A mutant by surface plasma resonance based biosensor system.
Sequence of Bcl-2-like protein 1 (Homo sapiens, UniProt Q07817, E96A) (Q07817 whole entry E96A): as the sequence (Q07817 whole entry Y101A) above, with E96A, A101Y counted along it
Assay [12] relates to K562. Briefly: Induction of apoptosis in human K562 cells assessed as increase of reactive oxygen species level at 25 uM after 48 hrs using DCFH-DA fluorescent dye relative to control. Type of assay: functional.
Assay [13] deals with K562. Briefly: Induction of apoptosis in human K562 cells assessed activation of caspase9 at 25 uM after 48 hrs by immunoblotting. Type of assay: functional, cell-based.
Assay [14] relates to K562. As to the kind of experiment: Induction of apoptosis in human K562 cells assessed activation of caspase3 at 25 uM after 48 hrs by immunoblotting. Type of assay: functional, cell-based. (In general: Immunoblotting shows a protein as a band on a membrane.)
Assay [15] relates to K562. As to the kind of experiment: Induction of apoptosis in human K562 cells assessed reduction of mitochondrial membrane potential after 24 hrs using JC1 fluorescent dye.

Active and inactive are the calls of the source. The rule behind the calls is not given here.

T1 sequence (Q07817 whole entry): as the sequence (Q07817 whole entry Y101A) above, with A101Y counted along it
Description for A2780: Cytotoxicity against human A2780 cells after 48 hrs by MTT assay
Description for HepG2: Cytotoxicity against human HepG2 cells after 48 hrs by MTT assay

As for `COc1cccc(C2C3=C(N=c4s/c(=C\c5ccc(-c6cccc(C(=O)O)c6)o5)c(=O)n42)c2ccccc2CC3)c1` (stereo not given), the IC50 on Bcl-2-like protein 1 [1] was determined as 7.3 µM; against Bcl-2-like protein 1 [2] it was 7.3 µM; in [4] it was 11.1 µM; in assay [6], 19.2 µM. The half-maximal effective concentration (EC50) in the assay on K562 [3] was > 100 µM; in the assay on PC-3 it was 29.5 µM; in assay [5], > 100 µM; in the assay on HepG2, > 100 µM; with A2780, 13.8 µM; in the assay with OVCAR-3 it was 7.91 µM. The Activity result with PC-3 is “Dose-dependent effect”.
On to `COc1ccc(C2C3=C(N=c4s/c(=C\c5ccc(-c6cccc(C(=O)O)c6)o5)c(=O)n42)c2ccccc2CC3)cc1` (stereo not given), for which the half-maximal inhibitory concentration (IC50) came to 6.9 µM at Bcl-2-like protein 1 [1], 6.9 µM on Bcl-2-like protein 1 [2], 8 µM in assay [4] and 18.6 µM in assay [6]. For the same molecule, the concentration giving a half-maximal response (EC50) is 72.3 µM in the assay with K562 [3]; 12 µM in the assay on PC-3; 24.7 µM in [5]; > 100 µM with HepG2; 13.1 µM in the assay on A2780; 7.21 µM in the assay on OVCAR-3. Moreover, the Activity entry in the assay on PC-3 was “Dose-dependent effect”. In addition, the Kd on Bcl-2-like protein 1 [7] is > 1000 µM.
For the molecule `COc1ccc(C2C3=C(N=c4s/c(=C\c5ccc(OCc6cccc(C(=O)O)c6)c(OC)c5)c(=O)n42)c2ccccc2CC3)cc1` (stereo not given), the IC50 is 17.4 µM on Bcl-2-like protein 1 [1], 17.4 µM at Bcl-2-like protein 1 [2], 19.4 µM in assay [4] and 34.4 µM in [6]. In addition, the EC50 in the assay with K562 [3] is 6.42 µM; in the assay with PC-3, > 100 µM; in assay [5], 7.2 µM; in the assay with HepG2 it was 9.9 µM; in the assay with A2780, 3.03 µM; in the assay with OVCAR-3, 11.7 µM. Besides, in the assay on PC-3, the Activity entry is “Dose-dependent effect”. Further, on Bcl-2-like protein 1 [7], the Kd was > 1000 µM.
In the case of `COc1ccccc1C1C2=C(N=c3s/c(=C\c4cccc(OCC(=O)O)c4)c(=O)n31)c1ccccc1CC2` (stereo not given), the outcome with K562 [8], in the assay on K562 [13] and in the assay on K562 [14] was Active. For the same molecule, the Kd on Bcl-2-like protein 1 [9] turned out to be 9.5 µM; at Bcl-2-like protein 1 [10], 904 µM; on Bcl-2-like protein 1 [11], 34.8 µM; at Bcl-2-like protein 1 [7], 6.94 µM. For the same molecule, the “fold change (FC)” value in the assay on K562 [12] turned out to be 2.7. Further, the IC50 at Bcl-2-like protein 1 [1] amounted to 3.4 µM; against Bcl-2-like protein 1 [2], 3.4 µM; in [4], 3.1 µM; in assay [6], 6.4 µM. Further, the EC50 with K562 [3] was found to be 50.9 µM; with PC-3, 37.6 µM; in assay [5], 7.9 µM; with HepG2, 12.7 µM; with A2780 it was 4.57 µM; in the assay with OVCAR-3, 1.54 µM. For the same molecule, the Activity entry with PC-3 and with K562 [15] was “Dose-dependent effect” throughout.

The IC50 is the midpoint of a concentration-inhibition curve. A lower IC50 goes with greater potency in that assay. What is called EC50 is the concentration giving half of the maximal effect. For orientation: Kd means a measure of binding affinity in units of concentration.
